A value given as a limit tells only on which side of the number the result lay.

For the first assay, the target named is T1, Gag-Pol polyprotein [600-1028,C879S]/[600-1151,C879S] (Human immunodeficiency virus 1, UniProt P03366, C879S).
T1 construct: 600-1028; 600-1151
The assay is described as follows: Assay of RT RNA-Dependent DNA Polymerase (RDDP) Activity. The conditions noted are these: pH 7.8; 37 °C. As for the experimental part: HIV-1 RT RDDP activity was generally determined by a fixed time assay. Briefly, reaction mixtures contained p51/p66 RT, template-primer, and [3H]-TTP substrate. Aliquots of DMSO solutions containing the inhibitor were added such that the final DMSO concentration was < 2%. Reaction assays were incubated at 37 deg C for 10-20 min and then quenched with sodium pyrophosphate in 10% trichloroacetic acid (TCA). The samples were then filtered on Whatman 934-AH glass fiber filters and washed with 10% TCA and ethanol, and the radioactivity determined by liquid scintillation spectrometry.
Consider `COc1ccc2ccccc2c1/C=N/NC(=O)c1ccccc1` [dihydroxy benzoyl naphthyl hydrazone (DHBNH) analogue, 1], for which the half-inhibitory concentration (IC50) was > 50000 nM.

Consider `COc1ccc2ccccc2c1/C=N/NC(=O)c1ccc(C)cc1` [dihydroxy benzoyl naphthyl hydrazone (DHBNH) analogue, 2], for which the half-maximal inhibitory concentration (IC50) was > 50000 nM.

`COc1ccc(C(=O)N/N=C/c2c(OC)ccc3ccccc23)cc1` [dihydroxy benzoyl naphthyl hydrazone (DHBNH) analogue, 3]: the IC50 is > 50000 nM.

Turning to `COc1ccc2ccccc2c1/C=N/NC(=O)c1ccc(N(C)C)cc1` [dihydroxy benzoyl naphthyl hydrazone (DHBNH) analogue, 4], the concentration for half-maximal inhibition (IC50) was > 50000 nM.

`COc1ccc2ccccc2c1/C=N/NC(=O)c1ccc(C(C)(C)C)cc1` [dihydroxy benzoyl naphthyl hydrazone (DHBNH) analogue, 5] yielded an IC50 of 2000 nM.

Regarding `COc1ccc2ccccc2c1/C=N/NC(=O)c1ccc(-c2ccccc2)cc1` [dihydroxy benzoyl naphthyl hydrazone (DHBNH) analogue, 6], inhibition was half-maximal at 500 nM (IC50).

Take `COc1ccc2ccccc2c1/C=N/NC(=O)c1ccc(Oc2ccccc2)cc1` [dihydroxy benzoyl naphthyl hydrazone (DHBNH) analogue, 7]: it took 400 nM to reach half-maximal inhibition (IC50).

Regarding `COc1ccc2ccccc2c1/C=N/NC(=O)C1CCC(c2ccc(Cl)cc2)CC1` (stereo not drawn) [dihydroxy benzoyl naphthyl hydrazone (DHBNH) analogue, 8], the half-inhibitory concentration (IC50) is 1000 nM.

`COc1ccc2ccccc2c1/C=N/NC(=O)c1ccc(O)c(O)c1` [dihydroxy benzoyl naphthyl hydrazone (DHBNH)]: the IC50 was > 25000 nM.

A further assay addresses T2, Gag-Pol polyprotein [600-1028,Y780C]/[600-1151,Y780C] (Human immunodeficiency virus 1, UniProt P03366, Y780C).
T2 construct: 600-1028; 600-1151
In words: Assay of RT RNH Activity.
Conditions: not given
As for the experimental part:
(§1) To assess the effect of inhibitors, RT RNH activity was measured using a FRET-based microplate fluorescence assay. Briefly, the RNA-DNA hybrid duplex was added to individual wells of a 96-well microplate containing test compound. Reactions were initiated by the addition of HIV-1 RT and allowed to proceed at 37 deg C for 30 min. Reactions were quenched by the addition of EDTA (0.5 M).
Regarding `COc1ccc2ccccc2c1/C=N/NC(=O)c1ccc(O)c(O)c1` [dihydroxy benzoyl naphthyl hydrazone (DHBNH)], the 50% inhibitory concentration (IC50) was 650 nM.

The target in a further assay is T3, Gag-Pol polyprotein [600-1028,D666N,K669R,T814F,K818Q,C879S]/[600-1151,D666N,K669R,T814F,K818Q,C879S] (Human immunodeficiency virus 1, UniProt P03366, C879S/D666N/K669R/K818Q/T814F).
T3 construct: 600-1028; 600-1151
In words: Assay of RT RNH Activity.
Conditions: not given
As for the experimental part: as §1
Regarding `COc1ccc2ccccc2c1/C=N/NC(=O)c1ccc(O)c(O)c1` [dihydroxy benzoyl naphthyl hydrazone (DHBNH)], the midpoint of inhibition, the IC50, lay at 500 nM.

Another assay concerns the target T4, Gag-Pol polyprotein [600-1028,L699I,K702N,C879S]/[600-1151,L699I,K702N,C879S] (Human immunodeficiency virus 1, UniProt P03366, C879S/K702N/L699I).
T4 construct: 600-1028; 600-1151
The assay is described as follows: Assay of RT RNH Activity.
Conditions: not given
Here is the method:
as §1
In turn, `COc1ccc2ccccc2c1/C=N/NC(=O)c1ccc(O)c(O)c1` [dihydroxy benzoyl naphthyl hydrazone (DHBNH)] came in with a 50% inhibitory concentration (IC50) of 700 nM.

A further assay concerns the target T1, Gag-Pol polyprotein [600-1028,C879S]/[600-1151,C879S]. In words: Assay of RT RNH Activity. The following applies: pH 8; 37 °C. As for the experimental part:
as §1
`COc1ccc2ccccc2c1/C=N/NC(=O)c1ccccc1` [dihydroxy benzoyl naphthyl hydrazone (DHBNH) analogue, 1]: the IC50 came out at 15000 nM.

`COc1ccc2ccccc2c1/C=N/NC(=O)c1ccc(C)cc1` [dihydroxy benzoyl naphthyl hydrazone (DHBNH) analogue, 2] came in with a concentration for half-maximal inhibition (IC50) of 15000 nM.

Take `COc1ccc(C(=O)N/N=C/c2c(OC)ccc3ccccc23)cc1` [dihydroxy benzoyl naphthyl hydrazone (DHBNH) analogue, 3]: the midpoint of inhibition, the IC50, lay at 12000 nM.

As for `COc1ccc2ccccc2c1/C=N/NC(=O)c1ccc(N(C)C)cc1` [dihydroxy benzoyl naphthyl hydrazone (DHBNH) analogue, 4], the IC50 came to 2000 nM.

The molecule `COc1ccc2ccccc2c1/C=N/NC(=O)c1ccc(C(C)(C)C)cc1` [dihydroxy benzoyl naphthyl hydrazone (DHBNH) analogue, 5] gave an IC50 of 3000 nM.

As to `COc1ccc2ccccc2c1/C=N/NC(=O)c1ccc(-c2ccccc2)cc1` [dihydroxy benzoyl naphthyl hydrazone (DHBNH) analogue, 6], the midpoint of inhibition, the IC50, lay at 5000 nM.

On to `COc1ccc2ccccc2c1/C=N/NC(=O)c1ccc(Oc2ccccc2)cc1` [dihydroxy benzoyl naphthyl hydrazone (DHBNH) analogue, 7], for which the IC50 came out at 7000 nM.

With `COc1ccc2ccccc2c1/C=N/NC(=O)C1CCC(c2ccc(Cl)cc2)CC1` (stereo not drawn) [dihydroxy benzoyl naphthyl hydrazone (DHBNH) analogue, 8], half-maximal inhibition (IC50) was put at 7500 nM.

The molecule `COc1ccc2ccccc2c1/C=N/NC(=O)c1ccc(O)c(O)c1` [dihydroxy benzoyl naphthyl hydrazone (DHBNH)] had an IC50 of 500 nM.

The target in the next assay is T5, Gag-Pol polyprotein [600-1028,Y787L]/[600-1151,Y787L] (Human immunodeficiency virus 1, UniProt P03366, Y787L).
T5 construct: 600-1028; 600-1151
The assay is described as follows: Assay of RT RNH Activity.
Conditions: not given
As for the experimental part:
as §1
With `COc1ccc2ccccc2c1/C=N/NC(=O)c1ccc(O)c(O)c1` [dihydroxy benzoyl naphthyl hydrazone (DHBNH)], the IC50 is 1200 nM.

The next assay deals with T6, Gag-Pol polyprotein [600-1028,V705A,Y780C,C879S]/[600-1151,V705A,Y780C,C879S] (Human immunodeficiency virus 1, UniProt P03366, C879S/V705A/Y780C).
T6 construct: 600-1028; 600-1151
The assay is described as follows: Assay of RT RNH Activity.
Conditions: not given
Here is the method:
as §1
As to `COc1ccc2ccccc2c1/C=N/NC(=O)c1ccc(O)c(O)c1` [dihydroxy benzoyl naphthyl hydrazone (DHBNH)], the IC50 was 850 nM.

Source of the values: BindingDB's records for doi:10.1021/cb600303y (Rutgers University, 2006).
